From PubChem BioAssay (NCI)
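Results reflect a 48-hour exposure of cells in 96-well plates to compound at five concentrations. GI50: concentration for 50% inhibition of growth. At the TGI there is no net growth.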

Legend:
Assay in all cases: DTP human tumour cell line panel, 48 h
[1] = test system: HCT-15 colon
[2] = test system: NCI-H522 lung
[3] = test system: NCI-H226 lung
[4] = test system: UO-31 renal
[5] = test system: SW-620 colon
[6] = test system: HCC-2998 colon
[7] = test system: A549 NSCLC
[8] = test system: SNB-19 CNS
[9] = test system: NCI/ADR-RES ovarian
[10] = test system: SF-295 CNS

COC(=O)c1c/c(=N\NC(=O)CC(=O)Nc2ccccc2OC)c2ccccc2o1
TGI [1]: > 100 µM
TGI [2]: > 100 µM
TGI [3]: > 100 µM
TGI [4]: > 100 µM
TGI [5]: > 100 µM
TGI [6]: > 100 µM
TGI [7]: > 100 µM
TGI [8]: > 100 µM

COc1ccc(-c2cnnc3c(-c4cccc(C(F)(F)F)c4)cnn23)cc1
GI50 [1]: > 100 µM
TGI [1]: > 100 µM
GI50 [2]: 3.66 µM
TGI [2]: > 100 µM
GI50 [3]: 2.64 µM
TGI [3]: > 100 µM
GI50 [5]: > 100 µM
TGI [5]: > 100 µM
GI50 [6]: > 100 µM
TGI [6]: > 100 µM
GI50 [9]: 3.05 µM
TGI [9]: > 100 µM
GI50 [7]: 4.19 µM
TGI [7]: > 100 µM
GI50 [8]: 2.45 µM
TGI [8]: 7.44 µM

O=C1/C(=C/c2ccccc2)CNC/C1=C\c1ccccc1
TGI [1]: 2.76 µM
TGI [2]: 2.66 µM
TGI [3]: 6.18 µM
TGI [4]: 3.87 µM
TGI [5]: 2.11 µM
TGI [10]: 5.25 µM
TGI [6]: 3.33 µM
TGI [7]: 7.63 µM
TGI [8]: 11.9 µM

CCCCN=C(NC#N)NCCCC
TGI [1]: > 100 µM
TGI [2]: > 100 µM
TGI [3]: > 100 µM
TGI [4]: > 100 µM
TGI [5]: 42 µM
TGI [10]: > 100 µM
TGI [6]: > 100 µM
TGI [7]: > 100 µM
TGI [8]: > 100 µM

O=C(c1ccccc1)c1nnc(C(=O)c2ccccc2)nn1
TGI [1]: > 344 µM
TGI [2]: > 344 µM
TGI [3]: > 344 µM
TGI [4]: > 344 µM
TGI [5]: > 344 µM
TGI [10]: > 344 µM
TGI [6]: > 344 µM
TGI [7]: > 344 µM
TGI [8]: > 344 µM

Cc1cccc(C)c1NC(=O)C(=O)C1C(=O)NC(=O)NC1=O
TGI [1]: > 100 µM
TGI [2]: > 100 µM
TGI [3]: > 100 µM
TGI [4]: > 100 µM
TGI [5]: > 100 µM
TGI [10]: > 100 µM
TGI [6]: > 100 µM
TGI [7]: > 100 µM
TGI [8]: > 100 µM

Cc1cc2c(cc1C)[n+](=O)c(C(=O)C/C(=N/NC(=O)CC#N)C(=O)Nc1ccccc1C(F)(F)F)c(C)n2[O-]
TGI [1]: > 100 µM
TGI [2]: 35.5 µM
TGI [3]: > 100 µM
TGI [5]: > 100 µM
TGI [10]: > 100 µM
TGI [6]: > 100 µM
TGI [7]: > 100 µM
TGI [8]: > 100 µM

Cn1c(=O)c2[nH]c(SCc3ccccn3)nc2n(C)c1=S
TGI [1]: > 100 µM
TGI [2]: > 100 µM
TGI [3]: > 100 µM
TGI [4]: > 100 µM
TGI [5]: > 100 µM
TGI [10]: > 100 µM
TGI [9]: > 100 µM
TGI [7]: > 100 µM
TGI [8]: > 100 µM

COC(=O)/C(=N/NC(=O)C[N+](C)(C)C)C(C(=O)OC)C(=O)C(=O)Nc1ccc(F)cc1 (centres undefined)
TGI [1]: > 100 µM
TGI [2]: > 100 µM
TGI [3]: > 100 µM
TGI [4]: > 100 µM
TGI [5]: > 100 µM
TGI [10]: > 100 µM
TGI [6]: > 100 µM
TGI [7]: > 100 µM
TGI [8]: > 100 µM

O=C1CCC(=O)N2CCCCN12
TGI [1]: > 100 µM
TGI [2]: > 100 µM
TGI [3]: > 100 µM
TGI [4]: > 100 µM
TGI [5]: > 100 µM
TGI [10]: > 100 µM
TGI [6]: > 100 µM
TGI [7]: > 100 µM
TGI [8]: > 100 µM

CCC[CH2][Sn]1([CH2]CCC)[O]Cc2nc(C)ccc2[O]1
GI50 [1]: 10.1 µM
TGI [1]: 21.9 µM
GI50 [2]: 1.19 µM
TGI [2]: 2.5 µM
GI50 [3]: 14 µM
TGI [3]: 27.1 µM
GI50 [4]: 13.3 µM
TGI [4]: 26.1 µM
GI50 [5]: 2.81 µM
TGI [5]: 12.1 µM
GI50 [10]: 2.02 µM
TGI [10]: 3.69 µM
GI50 [6]: 7.86 µM
TGI [6]: 21.3 µM
GI50 [7]: 19 µM
TGI [7]: 33.1 µM
GI50 [8]: 3.95 µM
TGI [8]: 14.9 µM

Brc1cccc(C=NC23CC4CC(CC(C4)C2)C3)c1
TGI [1]: > 100 µM
TGI [2]: > 100 µM
TGI [3]: > 100 µM
TGI [4]: > 100 µM
TGI [5]: > 100 µM
TGI [10]: > 100 µM
TGI [6]: > 100 µM
TGI [7]: > 100 µM
TGI [8]: > 100 µM

Cc1ccc2c(c1)[n+]([O-])c(N)n[n+]2[O-]
TGI [1]: > 100 µM
TGI [2]: > 100 µM
TGI [3]: > 100 µM
TGI [4]: > 100 µM
TGI [5]: > 100 µM
TGI [10]: > 100 µM
TGI [9]: > 100 µM
TGI [7]: > 100 µM
TGI [8]: > 100 µM

COc1ccc(/C=C/CN(C)CCc2ccccc2)cc1OC
TGI [1]: > 100 µM
TGI [3]: > 100 µM
TGI [4]: > 100 µM
TGI [5]: > 100 µM
TGI [10]: > 100 µM
TGI [6]: > 100 µM
TGI [7]: > 100 µM
TGI [8]: > 100 µM

O=c1c2cc([N+](=O)[O-])ccc2sc2ccsc12
TGI [1]: > 100 µM
TGI [2]: > 100 µM
TGI [3]: > 100 µM
TGI [4]: > 100 µM
TGI [5]: > 100 µM
TGI [10]: > 100 µM
TGI [6]: > 100 µM
TGI [7]: > 100 µM
TGI [8]: > 100 µM

[Cl-].[Dy+3].[O-]/N=C(\c1ccccc1)c1ccccn1.[O-]/N=C(\c1ccccc1)c1ccccn1.[O-]/N=C(\c1ccccc1)c1ccccn1
GI50 [1]: 37 µM
TGI [1]: > 100 µM
GI50 [2]: 19.5 µM
TGI [2]: 65.6 µM
GI50 [3]: 17.3 µM
TGI [3]: 58.4 µM
GI50 [4]: 25.3 µM
TGI [4]: 65.3 µM
GI50 [5]: 41.8 µM
TGI [5]: > 100 µM
GI50 [10]: 20.9 µM
TGI [10]: 68.8 µM
GI50 [6]: 27.6 µM
TGI [6]: 88.8 µM
GI50 [7]: 32.2 µM
TGI [7]: > 100 µM
GI50 [8]: 38 µM
TGI [8]: > 100 µM

O=C(/N=N/C(=O)OCc1ccccc1)OCc1ccccc1
TGI [1]: > 100 µM
TGI [4]: > 100 µM
TGI [5]: > 100 µM
TGI [10]: > 100 µM
TGI [6]: > 100 µM
TGI [7]: > 100 µM
TGI [8]: > 100 µM

CCC(C)c1c(Cl)nc(Cl)nc1Cl (centres undefined)
TGI [1]: 35.3 µM
TGI [2]: 2.51 µM
TGI [3]: 7.75 µM
TGI [4]: 33.4 µM
TGI [5]: > 100 µM
TGI [10]: 42.2 µM
TGI [6]: 60.6 µM
TGI [9]: > 100 µM
TGI [8]: 30.7 µM

CCC[CH2][Sn]([CH2]CCC)([O]C(=O)c1cccnc1SC)[O]C(=O)c1cccnc1SC
GI50 [1]: 1.04 µM
TGI [1]: 2.3 µM
GI50 [2]: 0.0216 µM
TGI [2]: 0.133 µM
GI50 [3]: 0.883 µM
TGI [3]: 2.18 µM
GI50 [4]: 1.36 µM
TGI [4]: 2.66 µM
GI50 [5]: 0.248 µM
TGI [5]: 1.25 µM
GI50 [10]: 1.38 µM
TGI [10]: 2.67 µM
GI50 [6]: 1.3 µM
TGI [6]: 2.57 µM
GI50 [7]: 6.7 µM
TGI [7]: 20.6 µM
GI50 [8]: 1.46 µM
TGI [8]: 2.78 µM

CC(C)(C)C1C=C(Sc2ccccc2)C(=O)O1 (centres undefined)
TGI [1]: > 100 µM
TGI [2]: 87.8 µM
TGI [3]: > 100 µM
TGI [4]: 92.1 µM
TGI [5]: > 100 µM
TGI [10]: > 100 µM
TGI [6]: > 100 µM
TGI [7]: > 100 µM
TGI [8]: > 100 µM
